Measured values from PubChem BioAssay AID602484 (Southern Research Specialized Biocontainment Screening …, 2012).

These molecules were tested on VEEV TrD infected cells, CPE inhibition (assay: VEEV Trinidad donkey strain, infected cells, CPE inhibition, confirmatory IC50 (AID 602484)).

Compound | IC50 [nM]
CN(C(=O)Cc1cccs1)c1nc2c(s1)CCCC2 | 2030
CCN1CCN(Cc2nc3ccc([N+](=O)[O-])cc3c(=O)n2-c2ccccc2F)CC1 | 370
CN1CCN(Cc2nc3ccc([N+](=O)[O-])cc3c(=O)n2-c2ccccc2F)CC1 | 270
